{"source": "paper PMC6072853", "about": "(Frontiers in Pharmacology, 2018)", "key": {"[1]": {"molecular_target": "T1, human androgenic receptor (Homo sapiens, UniProt P10275)", "T1 construct": "host or cells: Saccharomyces cerevisiae", "T1 sequence (P10275 1-920)": "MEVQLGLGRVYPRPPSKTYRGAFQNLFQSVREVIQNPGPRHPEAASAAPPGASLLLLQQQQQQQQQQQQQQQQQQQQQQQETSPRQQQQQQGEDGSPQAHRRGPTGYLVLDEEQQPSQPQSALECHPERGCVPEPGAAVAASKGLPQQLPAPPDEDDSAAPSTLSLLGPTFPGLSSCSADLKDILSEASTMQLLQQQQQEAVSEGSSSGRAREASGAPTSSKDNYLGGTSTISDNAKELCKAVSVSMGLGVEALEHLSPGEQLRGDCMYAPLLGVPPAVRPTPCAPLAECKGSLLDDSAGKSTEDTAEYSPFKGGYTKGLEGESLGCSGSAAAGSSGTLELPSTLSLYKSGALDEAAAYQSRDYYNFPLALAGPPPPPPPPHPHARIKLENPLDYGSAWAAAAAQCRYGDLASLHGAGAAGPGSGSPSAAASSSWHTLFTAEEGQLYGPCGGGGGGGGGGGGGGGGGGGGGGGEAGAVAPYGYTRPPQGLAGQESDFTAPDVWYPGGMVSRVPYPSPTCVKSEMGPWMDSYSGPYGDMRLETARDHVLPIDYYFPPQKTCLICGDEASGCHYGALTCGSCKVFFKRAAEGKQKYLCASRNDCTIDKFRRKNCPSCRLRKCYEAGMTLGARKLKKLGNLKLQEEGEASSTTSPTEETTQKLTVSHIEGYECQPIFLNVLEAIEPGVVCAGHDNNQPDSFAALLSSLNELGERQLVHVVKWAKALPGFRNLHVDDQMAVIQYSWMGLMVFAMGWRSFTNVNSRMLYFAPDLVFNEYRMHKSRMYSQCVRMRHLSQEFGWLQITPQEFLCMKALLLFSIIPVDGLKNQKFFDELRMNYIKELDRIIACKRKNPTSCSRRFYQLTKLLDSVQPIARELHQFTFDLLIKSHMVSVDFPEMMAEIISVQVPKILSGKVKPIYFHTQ", "assay": "Yeast-based androgenic reporter assay, antagonistic", "assay_type": "cell-based", "conditions": "in the presence of 5α-dihydrotestosterone", "protocol": "An endocrine bioassay kit (Xenometrix AG, Allschwil, Switzerland) was used to test for a potential residual androgenic activity of the selected agents. Genetically modified yeast cells (Saccharomyces cerevisiae) containing the human androgenic receptor gene integrated into a yeast chromosome, as well as an expression plasmid with the sequences of both the androgen responsive element and a lacZ reporter gene were cultured in humidified air at 31°C with agitation for 2 days. The appropriate concentrations of the test compounds and a CPRG substrate solution (chlorophenol red-β-D-galactopyranoside) for β-galactosidase were added into a 96-well microplate according to the instructions of the manufacturer. Androgen agonistic and antagonistic properties of the test compounds were determined by a colorimetric assay. For the antagonistic measurements the medium was supplemented with 5α-dihydrotestosterone (DHT). Once the reporter gene is expressed, β-galactosidase is secreted into the medium, and converts the yellow CPRG substrate into a red product, which can be quantified at 570 nm. Quantities of this red product correlate with the liberation of β-galactosidase, which is increased when an agonistic effect is present, while it is decreased when the test compound exerts an antagonistic effect. […]"}, "[2]": {"molecular_target": "T1, human androgenic receptor", "assay": "Yeast-based androgenic reporter assay, agonistic", "assay_type": "cell-based", "conditions": "read-out: Calculated EC50 values, androgenic activity", "experimental": "Genetically modified yeast cells (Saccharomyces cerevisiae) containing the human androgenic receptor gene integrated into a yeast chromosome, as well as an expression plasmid with the sequences of both the androgen responsive element and a lacZ reporter gene were cultured in humidified air at 31°C with agitation for 2 days. The appropriate concentrations of the test compounds and a CPRG substrate solution (chlorophenol red-β-D-galactopyranoside) for β-galactosidase were added into a 96-well microplate according to the instructions of the manufacturer. Androgen agonistic and antagonistic properties of the test compounds were determined by a colorimetric assay. For the antagonistic measurements the medium was supplemented with 5α-dihydrotestosterone (DHT). Once the reporter gene is expressed, β-galactosidase is secreted into the medium, and converts the yellow CPRG substrate into a red product, which can be quantified at 570 nm. Quantities of this red product correlate with the liberation of β-galactosidase, which is increased when an agonistic effect is present, while it is decreased when the test compound exerts an antagonistic effect. For the agonistic and antagonistic assays, nandrolone (1) and flutamide were used as reference agents, respectively."}}, "data": [{"compound": "C[C@]12CC[C@H]3[C@@H](CCC4=CC(=O)CC[C@@H]43)[C@@H]1CC[C@H]2Cl", "note": "[Compound 3]", "values": [{"measurement": "androgen antagonistic activity", "setting": "[1]", "result": "no antagonistic activity"}, {"measurement": "EC50", "setting": "[2]", "result": 3.8, "unit": "µM"}]}]}
